System: EAE mice (wild type or Wlds)
Test: Mouse EAE model, subcutaneous nicotinamide (Example 9 end, Example 12)
Format: in vivo
Details: for reduction of neural degeneration in EAE mice: daily from day of MOG immunization
Method: In initial experiments, we administered nicotinamide daily starting from the day of immunization by MOG peptide, and found efficacy in both 125 mg/kg and 500 mg/kg treatment groups. We have also examined groups of mice wherein initiation of nicotinamide administration was delayed until 10 days after the immunization by MOG peptide (delayed treatment group), to better model clinical conditions wherein patients typically begin treatment after onset of pathogenic autoimmunity.
In this example we administered NAm by daily subcutaneous injection at two different dosages (125 or 500 mg/kg, dissolved by PBS) starting from the day of MOG immunization. As a control, we administered the same volume of PBS into either wild type or Wld^s mice. The EAE models were induced following essentially the procedure described in Kalyvas et al (2004, Neuron 41, 323-335). Other protocols were adapted from Wang, et al. (2005) J. Cell. Biol. 170: 349-355.
We started treatments with NAm (500 mg/kg, daily subcutaneous injection) from 10 days P.I. when most of the animals already have clear clinical symptoms.

[1] = 500 mg/kg daily s.c. from 10 days P.I.

NC(=O)c1cccnc1 [nicotinamide, 3-pyridinecarboxamide]
NAD levels, delayed treatment [1]: increased NAD levels effectively | further development of EAE symptoms, delayed treatment [1]: efficiently attenuated further development of EAE symptoms | number of degenerating axons, delayed treatment (500 mg/kg daily s.c. from 10 days P.I., 8 weeks P.I.): significantly reduced the number of degenerating axons | degenerating axons detected compared with untreated animals (Wlds mice, high dose): ~5% | effect on EAE symptoms (Wlds mice, high dose 500 mg/kg): More dramatic improvements | NAD levels at 2 and 4 weeks P.I. (Wlds mice, high dose (500 mg/kg) s.c.): remained at high levels | axons remaining morphologically intact (Toluidine Blue) (Wlds mice, high dose, 8 weeks P.I.): ~90% | NAD levels at 2 weeks P.I. (daily s.c. 125 or 500 mg/kg from day of MOG immunization): dramatically increased NAD levels in a dose-dependent manner | reduction of neural degeneration in EAE mice (subcutaneous, 125 mg/kg): efficacy | reduction of neural degeneration in EAE mice (subcutaneous, 500 mg/kg): efficacy | neural degeneration versus matched controls, delayed treatment group (subcutaneous, started 10 days after MOG immunization): reduced neural degeneration | axons in peripheral regions of the spinal cord (wild type EAE mice, high dose): increased numbers of demyelinated but preserved axons | numbers of SMI-32-positive axons (wild type and Wlds mice, 2, 4 and 8 weeks P.I.): significantly reduced numbers | onset and development of EAE symptoms (wild type mice, 125 or 500 mg/kg s.c. daily): ameliorated the onset and development of EAE symptoms in a dose-dependent manner | NAD levels at 4 weeks P.I. (wild type mice, continuous daily s.c. administration): returned to near-normal levels | degenerating axons detected compared with untreated animals (wild type mice, high dose): approximately 10% | effect on EAE onset and severity (wild type mice, high dose 500 mg/kg): significant improvement | axons remaining morphologically intact (Toluidine Blue) (wild type mice, high dose, 8 weeks P.I. (control wild type EAE 25%)): approximately 70%

Reference: patent US20060211744A1, “3-Pyridinecarboxamide reduces nerve degeneration” (Children's Medical Center, priority 2005, published 2006)
